What was measured:
[1] = system: egg white-induced rat paw edema; experiment: Egg white-induced rat paw edema, plethysmometry; type: in vivo, Wistar rats; details: for Average Paw Size ± SD / Average Rise in Paw Volume ± SD: n = 3; for % inhibition of paw volume: oral, 1 h before egg white, formula F 250 mg/mL at 1 mL/100 g bw, ASP 100 mg/kg
Protocol: Of the many methods used in screening for the anti-inflammatory effects of various drugs, the most commonly used is the method of highlighting the inhibitory effect of edema produced in the hind paw of a rat after the injection of an inflammatory product. We used whole, fresh egg white, which, due to its inflammation being maintained for a relatively short period of time, is optimal for observation. The effect was measured by the computerized plethysmometric method, the method unanimously and currently used in testing systemic anti-inflammatory effects.
The increases in the volume of the inflamed extremity at 30, 60, 120 and 180 min were expressed as a percentages compared with the volumes measured […] injection of the irritant (Table 3). The mean values of the measured volumes for each animal and the times of measurement were calculated, as were ± standard deviations, followed by the mean values per batch (Table 4). The differences between the averages of the values obtained in the treated groups and those of the control groups (with or without treatment), were calculated for each measurement moment and the anti-inflammatory indexes were evaluated.
The anti-inflammatory effect of plant extracts was evaluated by rat paw edema assay. Wistar rats, of both sexes, weighing 150–200 g provided by the Cantacuzino Institute Biobase were used for the study. Lots of equal numbers of animals (n = 3) were established for each test sample or reference product. The animals were checked at the reception and kept for a period of 7 days for acclimatization, with observation of the clinical condition, behavior and food consumption. They were weighed at the reception and after the acclimatization period, with the selection for testing of animals with weight variations less than 10% of the initial weight. The animals were housed in appropriate cages, in small groups of the same sex. The temperature of the experimental chamber was 22 ± 2 °C and the relative humidity was 50–60%. The lighting was artificial, alternately 12-h light and 12-h dark. The animals received standardized food and water ad libitum. Twelve hours before the test, they were kept at the post and allowed access to water. The measurement of the inflamed segments volumes and their subsequent evolution was performed with the help of a U40 Basile-Italy computerized plethysmometer 7140 and the CUB dedicated software program for data acquisition and storage. The test samples and the reference substance were administered orally by intragastric gavage 1 h before the injection of the inflammatory substance (whole, fresh egg white).
The animals were injected subcutaneously with a volume of 0.1 mL of the inflammatory agent on the plantar surface of the right hind limb.
The volume of the right hind limb was measured plethysometrically prior to injection with the inflammatory agent, which represented the “0” moment of the measurements. The volume of the extremity was measured repeatedly, at 30, 60, 120 and 180 min.
In order to perform the readings, the inflamed extremity was visually marked at the level of the lateral ankle, then it was introduced into the immersion liquid of the measuring cell of the device to this level, with the performance of three measurements for each animal and for each moment, established according to the working protocol, with data storage facilitated by the plethysmometer software. The samples were administered orally by intragastric gavage, as such, at a volume of 1 mL/100 g of bw. Powder samples, after suspension with Tween 80, were administered at a concentration of 250 mg/mL, at 1 mL/100 g of bw.
The reference product (acetylsalicylic acid/aspirin) (Zentiva, Bucharest, Romania) was administered in the same way, in the form of a suspension in two doses of 100 mg/kg of bw at a volume of 1 mL/100 g of bw.

paw edema = details: cited from earlier work
NO = details: cited from earlier work

SMILES: CC(=O)Oc1ccccc1C(=O)O [ASP 100, acetylsalicylic acid]
- Average Paw Size ± SD ([1]; 0 min (prior to injection)): 1.744 ± 0.297 mL
- anti-inflammatory effect over the observation period ([1]; 30–180 min): anti-inflammatory effect that was induced early
- Average Paw Size ± SD ([1]; 30 min): 2.489 ± 0.241 mL
- Average Rise in Paw Volume ± SD ([1]; 30 min): 0.745 ± 0.056 mL
- Average Paw Size ± SD ([1]; 60 min): 2.318 ± 0.161 mL
- Average Rise in Paw Volume ± SD ([1]; 60 min): 0.574 ± 0.136 mL
- % inhibition of paw volume ([1]; 60 min): 58.20%
- Average Paw Size ± SD ([1]; 120 min): 2.216 ± 0.197 mL
- Average Rise in Paw Volume ± SD ([1]; 120 min): 0.472 ± 0.1 mL
- % inhibition of paw volume ([1]; 120 min): 64.25%
- Average Paw Size ± SD ([1]; 180 min): 2.211 ± 0.263 mL
- Average Rise in Paw Volume ± SD ([1]; 180 min): 0.467 ± 0.034 mL
- inhibitory action on paw edema (paw edema; third hour, 200 mg/kg, p < 0.05): 31.87%

SMILES: CC(C)c1cc2c(c(O)c1O)[C@@]1(C(=O)O)CCCC(C)(C)[C@@H]1CC2 [Carnosic acid]
- concentration that inhibits NO completely (NO): > 12.5 µg/mL

SMILES: CC(C)c1cc2c(c(O)c1O)[C@@]13CCCC(C)(C)[C@@H]1C[C@@H]2OC3=O [carnosol]
- IC50 (NO; read-out: IC50 NO inhibition): 9.4 µM

SMILES: O=C(/C=C/c1ccc(O)c(O)c1)O[C@H](Cc1ccc(O)c(O)c1)C(=O)O [rosmarinic acid]
- reduction of paw edema (paw edema; dose of 25 mg/kg, after 6 hrs): over 60%

Reference: article PMC8874475, “Antioxidant–Anti-Inflammatory Evaluation of a Polyherbal Formula” (Pharmaceuticals, 2022)
